This is an account of results in publication PMC8001353, “Tryptophanol-Derived Oxazolopyrrolidone Lactams as Potential Anticancer Agents against Gastric Adenocarcinoma” (Pharmaceuticals, 2021).

For one data set, the system named is A-549 (lung carcinoma). The experiment in a line: MTT cytotoxicity assay in A-549. The class given is cell-based. As to conditions: Homo sapiens, A549, 48 h incubation, mean ± SD. The protocol: (§1) The cytotoxicity was assessed in different cell lines with the endpoint MTT, using previously reported procedure. The following cells were obtained from the American Type Culture Collection: human embryonic kidney epithelial cell line (HEK 293T, ATCC HBT-22™), breast cancer cell line (MDA-MB-231, ATCC HTB-26™), osteosarcoma cell line (MG-63, ATCC CRL-1427™), gastric adenocarcinoma cell line (AGS, ATTC CRL-1739TM), prostate cancer cell line (DU-145, ATTC HTB-81™), and lung carcinoma cell line (A-549, ATCC CCL-185™). All cell lines were seeded at 2 × 10^4 cells/well with exception of A-549 cell line, which was seeded at 5 × 10^3 cells/well.

Data set [1] can be described thus: Metabolic stability in human liver microsomes with NADPH. The class given is in vitro ADME. The protocol:
The evaluation of the metabolic stability of compound 7s was conducted in human liver microsomes (GIBCO^TM, 20 donors) by a previously reported procedure. Specifically, for a total incubation volume of 1 mL, in 100 mM phosphate buffer at pH 7.4, 7s (10 μM), human liver microsomes (0.8 mg protein/mL), NADPH (1 mM), and NADPH regeneration system (10 µL, Vivid® Regeneration System, 100×) were used. Nevirapine was used as a positive control. Additional control incubations were performed in the absence of 7s or NADPH, and using heat-denatured (90 °C, 15 min) microsomes. The resulting mixtures were incubated at 37 °C, and all assays were run in duplicate. Aliquots (50 µL) were collected at different time points (0, 5, 10, 20, 30, 40, 50, 60, 75, 90, 120, and 180 min and 24 h) and 50 µL of cold reserpine solution (2.5 µM in acetonitrile) was then added to quench the reactions. Following centrifugation (10 min, 10,000× g, 4 °C), the supernatants were stored at −20 °C until LC-MS and LC-HRMS/MS analysis.
Samples from the metabolic stability assay were analyzed by LC-MS using the experimental conditions previously described. The in vitro depletion half-life of 7s, t1/2, was calculated using Equation (1), assuming that the compound follows a first-order kinetic trend (see Supplementary Materials Figure S2). The “slope” was determined from linear fitting of the natural logarithm of the concentration of drug remaining plotted against time. (1) t1/2=ln2/slope
The intrinsic clearance was calculated using Equation (2) (2) CLint = 0.693/ t1/2 × mL incubation/mg microsomes × 45 mg microsomes/g liver × 26 g liver/Kg b.w.
A general note: Liver microsomes are vesicles of endoplasmic reticulum, rich in cytochrome P450 enzymes.

The nature of another data set: Human plasma stability. The class given is in vitro ADME. As to conditions: human plasma diluted 50% in PBS, 24 h incubation, 37 °C, 100 µM. On the procedure: (§2) Human plasma was obtained from healthy volunteers and provided by Instituto Português do Sangue, Lisbon, Portugal. Buffer and human plasma stabilities were determined by standard methodology. Specifically, human plasma was centrifuged (5 min, 2000× g, room temperature) and, then, diluted 50% in PBS buffer (pH 7.4). The reactions were initiated by the addition of a solution of compound 7s (4 mM in DMSO, 25 µL) to 975 µL of plasma solution, at 37 °C, obtaining a final concentration of 100 µM. Solutions were stirred at 37 °C and 100 µL aliquots were collected at different time points: 0, 30, 60, 120, and 180 min (one additional aliquot was collected at 24 h). A cold reserpine solution (internal standard, 5 µM in acetonitrile, 300 µL) was then added to quench the reactions. Following centrifugation (10 min, 10,000× g, room temperature), the clear supernatants were stored at −20 °C until further analysis by HPLC-DAD. Assays were run in duplicate and procaine was used as a positive control for plasma stability. Additional control assays were conducted using PBS (pH 7.4) instead of a plasma solution. HPLC-DAD analysis was performed as previously described.

Data set [2] is described as follows: Buffer (PBS pH 7.4) stability. It is filed as physicochemical. As to conditions: PBS pH 7.4, 24 h incubation, 37 °C. On the procedure: as §2
The test system of data set [3] is human gastric adenocarcinoma (AGS) cell line. The experiment in a line: MTT reduction assay, cell viability / cytotoxicity in AGS cell line. It is filed as cell-based. The settings on record: for potency relative to hit 7c (times more potent / fold more active): AGS cells, ratio of IC50 values; for viability at 50 µM: Homo sapiens, AGS cell line, cell viability, MTT, 48 h incubation, mean ± SD, read-out: % CV at 50 µM. On the procedure: as §1
In general terms: Tetrazolium assays rely on reduction of a dye to a coloured formazan, in cell work by metabolically active cells.

For data set [4], the system named is caspase 3/7 activity in AGS cells. The experiment in a line: Caspase 3/7 activity assay (Ac-DEVD-AMC fluorimetric) in AGS cells. The class given is cell-based, human. As to conditions: 48 h incubation at 12.5 µM, vs control, p < 0.05. The protocol: The activity of caspase 3/7 was determined by fluorimetric assay based on the hydrolysis of the peptide substrate acetyl-Asp-Glu-ValAsp-7-amido-4-methylcoumarin (Ac-DEVD-AMC) by caspase 3/7 using a previously reported procedure.

The test system of another data set is MG-63 (osteosarcoma). The experiment in a line: MTT cytotoxicity assay in MG-63. As to conditions: Homo sapiens, 48 h incubation, mean ± SD. It is filed as cell-based. On the procedure: as §1

A word on the IC50: it is the concentration at which inhibition is half-maximal. For the compound `O=C1CC[C@]2(c3ccc(-c4ccc(Cl)c(Cl)c4)cc3)OC[C@@H](Cc3c[nH]c4ccccc34)N12` [Compound 7s, (3R,7aR)-3-((1H-indol-3-yl)methyl)-7a-(3’,4’-dichloro-[1,1’-biphenyl]-4-yl)tetrahydropyrrolo[2,1-b]oxazol-5(6H)-one], the half-maximal inhibitory concentration (IC50) in the data set on A-549 (lung carcinoma) is greater than 60 µM. In data set [1], the “in vitro metabolic stability” value is listed as “moderately stable”. Also, the “intrinsic hepatic clearance (CLint)” value in data set [1] (calculated from t1/2 (Equation 2)) is 22.8 min⁻¹ mL⁻¹ kg⁻¹. The half-life at 10 µM in data set [1] (pH 7.4, 10 µM, 37 °C, read-out: half-life (t1/2)) came to 45 min. In “Human plasma stability”, the “stability in human plasma” value was “stability in PBS conditions and under plasmatic enzyme activity”. The “stability in PBS” value in data set [2] is on record as “chemical stability in PBS conditions”. In addition, in data set [3], the “potency relative to hit 7c (times more potent / fold more active)” value amounted to 2.3 and the viability at 50 µM amounted to 8 ± 1%. Also, the “caspase 3/7 activity” value in data set [4] is given as “significant increase”.
The compound `O=C1CC[C@]2(c3ccc(-c4ccc(C(F)(F)F)cc4)cc3)OC[C@@H](Cc3c[nH]c4ccccc34)N12` [Compound 7o, (3R,7aR)-3-((1H-indol-3-yl)methyl)-7a-(4’-(trifluoromethyl)-[1,1’-biphenyl]-4-yl)tetrahydropyrrolo[2,1-b]oxazol-5(6H)-one] had an IC50 in the data set on A-549 (lung carcinoma) greater than 60 µM. In the data set on MG-63 (osteosarcoma), this compound displayed an IC50 of 26.8 ± 0.4 µM. In addition, in data set [3], the “potency relative to hit 7c (times more potent / fold more active)” value was determined as 2.3 and the viability at 50 µM was 7 ± 1%. Further, the “caspase 3/7 activity” value in data set [4] was “significant increase”.
With `CC(=O)n1cc(C[C@@H]2CO[C@@]3(c4ccc(Cl)cc4)CCC(=O)N23)c2ccccc21` [Compound 7l, (3R,7aR)-3-((1-acetyl-1H-indol-3-yl)methyl)-7a-(4-chlorophenyl)tetrahydropyrrolo[2,1-b]oxazol-5(6H)-one], the viability at 50 µM in data set [3] was 63 ± 13%.
With `O=C1CC[C@]2(c3ccc(-c4ccc(CO)cc4)cc3)OC[C@@H](Cc3c[nH]c4ccccc34)N12` [Compound 7q, (3R,7aR)-3-((1H-indol-3-yl)methyl)-7a-(4’-(hydroxymethyl)-[1,1’-biphenyl]-4-yl)tetrahydropyrrolo[2,1-b]oxazol-5(6H)-one], in data set [3], the viability at 50 µM is 55 ± 1%.
